The target of this test is Excitatory amino acid transporter 1 (Homo sapiens) (UniProt P43003). Put plainly: EAAT1 electrogenic uptake substrate activity – HEK293 JumpIn overexpressing cells, membrane potential dye, dose response (AID 1745864). Conditions: HEK293 JumpIn SLC1A3 OE, FLIPR membrane potential.

Consider one molecule from PubChem BioAssay AID1745864.

Each structure is given as a SMILES string.

Sequence of Excitatory amino acid transporter 1 (Homo sapiens) (P43003 whole entry, looked up): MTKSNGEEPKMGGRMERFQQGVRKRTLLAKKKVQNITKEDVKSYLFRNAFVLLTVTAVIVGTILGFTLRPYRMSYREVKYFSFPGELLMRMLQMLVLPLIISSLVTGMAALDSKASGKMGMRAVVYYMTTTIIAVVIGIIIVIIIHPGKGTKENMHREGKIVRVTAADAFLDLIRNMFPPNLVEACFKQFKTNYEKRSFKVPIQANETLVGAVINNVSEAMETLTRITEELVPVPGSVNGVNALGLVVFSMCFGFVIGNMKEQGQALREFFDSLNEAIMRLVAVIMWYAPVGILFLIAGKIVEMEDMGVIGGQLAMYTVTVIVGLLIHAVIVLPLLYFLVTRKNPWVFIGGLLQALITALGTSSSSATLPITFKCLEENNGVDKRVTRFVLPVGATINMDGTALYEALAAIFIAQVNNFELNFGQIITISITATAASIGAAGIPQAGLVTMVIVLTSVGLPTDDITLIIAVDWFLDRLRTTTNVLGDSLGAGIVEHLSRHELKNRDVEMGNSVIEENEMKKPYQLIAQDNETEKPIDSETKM

As to `N[C@@H](CS)C(=O)O`, the EC50 is 376 µM.

For orientation: EC50 means the concentration at which the effect is half-maximal.
